Results published in ChEMBL document CHEMBL3608258, “Anti-influenza activities of polyphenols from the medicinal mushroom Phellinus baumii” (Bioorg Med Chem Lett, 2015).
Activity calls are given as the source filed them. The rule behind the calls is not given here.

How the values were obtained:
[1] = Retention time of the compound; type: physicochemical
Neuraminidase [2] = target: T1, Neuraminidase (Influenza A virus, UniProt B4URF0); experiment: Inhibition of recombinant Influenza A virus H3N2 neuraminidase
Influenza A virus [3] = experiment: Antiviral activity against Influenza A virus H1N1 infected in MDCK cells assessed as inhibition of virus-induced cytopathic effect by SRB assay; type: functional, organism-based
Neuraminidase [4] = target: T1, Neuraminidase; experiment: (§1) Inhibition of recombinant Influenza A virus H1N1 neuraminidase
[5] = target: Neuraminidase (Influenza A virus) (UniProt B4URF0); experiment: as §1
[6] = target: Neuraminidase (Influenza A virus) (UniProt B4URF0); experiment: Noncompetitive inhibition of recombinant Influenza A virus H1N1 neuraminidase using MU-NANA as substrate
[7] = target: Neuraminidase (Influenza A virus) (UniProt B4URF0); experiment: Ratio of hispidin IC50 to compound IC50 for recombinant Influenza A virus H1N1 neuraminidase
[8] = Cytotoxicity against MDCK cells by SRB assay; type: cell-based, Canis lupus familiaris; conditions: dog
[9] = Therapeutic index, ratio of CC50 for MDCK cells to IC50 for Influenza A virus H1N1; type: cell-based; conditions: dog, read-out: Ratio CC50/IC50
Neuraminidase [10] = target: T1, Neuraminidase; experiment: (§2) Inhibition of recombinant Influenza A virus H5N1 neuraminidase
[11] = target: Neuraminidase (Influenza A virus) (UniProt B4URF0); experiment: as §2
Influenza A virus [12] = experiment: Antiviral activity against Influenza A virus H1N1 infected in MDCK cells assessed as inhibition of virus-induced change in cell morphology at 10 ug/ml after 2 days by microscopic analysis; type: functional, organism-based
Influenza A virus [13] = experiment: Ratio of zanamivir IC50 to compound IC50 for Influenza A virus H1N1 infected in MDCK cells assessed as inhibition of virus-induced cytopathic effect by SRB assay; type: functional

SMILES	Retention_time [1]	IC50 (Neuraminidase [2])	IC50 (Influenza A virus [3])	IC50 (Neuraminidase [4])	inhibition [5]	Kiuc [6]	Ratio IC50 [7]	CC50 [8]	selectivity ratio [9]	IC50 (Neuraminidase [10])	inhibition [11]	inhibition (Influenza A virus [12])	Ratio IC50 (Influenza A virus [13])
CC1=CC(=O)[C@H](c2c(O)cc(/C=C/c3ccc(O)c(O)c3)oc2=O)[C@@H](c2ccc(O)c(O)c2)O1 [DAVALLIALACTONE]	9 min	21.1 µM	42.8 µM	14.2 µM	Dose-dependent effect	27.6 µM	3.6	680 µM	2.3	21.8 µM	Dose-dependent effect	Active	
O=c1cc(O)cc(/C=C/c2ccc(O)c(O)c2)o1 [HISPIDIN]	11.6 min	45.2 µM	57.9 µM	50.9 µM	Dose-dependent effect	43 µM		> 100 µM	> 1.7	16.9 µM	Dose-dependent effect	Active	
O=c1cc(O)cc([C@H]2c3c(cc(/C=C/c4ccc(O)c(O)c4)oc3=O)O[C@@H]2c2ccc(O)c(O)c2)o1 [HYPHOLOMINE B]	14.5 min	14.6 µM	72.8 µM	22.9 µM	Dose-dependent effect	20.9 µM	2.2	> 100 µM	> 1.4	12.3 µM	Dose-dependent effect	Active	
CC1=CC(=O)C2(O1)c1c(cc(/C=C/c3ccc(O)c(O)c3)oc1=O)OC2c1ccc(O)c(O)c1 (configuration not stated) [INOSCAVIN A]	14.9 min	18.5 µM	22.6 µM	20 µM	Dose-dependent effect	24.5 µM	2.5	433 µM	4.4	18.5 µM	Dose-dependent effect	Active	2.9
O=c1oc2cc(/C=C/c3ccc(O)c(O)c3)oc(=O)c2c2cc(O)c(O)cc12 [PHELLIGRIDIN D]	18.8 min	10.3 µM	24.6 µM	8.8 µM	Dose-dependent effect	15.9 µM	5.8	> 100 µM	> 4.1	10.9 µM	Dose-dependent effect	Active	
CC(=O)N[C@H]1[C@H]([C@H](O)[C@H](O)CO)OC(C(=O)O)=C[C@@H]1NC(=N)N [ZANAMIVIR]			0.0647 µM									Active	
